This is an account of results in patent US20240293380A1, “PROTEASE INHIBITORS AND METHODS OF USE” (priority 2021, published 2024).

By IC50 is commonly meant the point on the concentration scale where inhibition reaches its midpoint. Higher therefore signals weaker potency.

The target of this test is SARS-CoV-2 3CLpro (Severe acute respiratory syndrome coronavirus 2 (2019-nCoV) (SARS-CoV-2), UniProt P0DTD1). The class given is biochemical.
Take `O=C(Cc1nnc2ccccn12)N(Cc1cccc(F)c1)c1ccc(-c2c[nH]cn2)cc1` [Compound 47]: the IC50 is 621 nM.

With `Cc1cncc(CC(=O)N(Cc2cc(F)cc(Cl)c2)c2ccc(-c3c[nH]cn3)cc2)c1` [Compound 70], the IC50 was 84 nM.

Compound `O=C(Cc1nncc2ccccc12)N(Cc1cc(F)cc(Cl)c1)c1ccc(-c2c[nH]cn2)cc1` [Compound 73] gave an IC50 of 61 nM.

On to `O=C(Cc1nnc(-c2ccccc2)s1)N(Cc1cccc(Cl)c1)c1ccc(-c2cn[nH]c2)cc1` [Compound 8, N-[(3-chlorophenyl)methyl]-2-(5-phenyl-1,3,4-thiadiazol-2-yl)-N-[4-(1H-pyrazol-4-yl)phenyl]acetamide], for which the “SARS-CoV-2 IC50 (nM)” value is recorded as “Inactive”.

`CC(c1cc(F)cc(F)c1)N(C(=O)Cc1cncc2ccccc12)c1ccc(-c2c[nH]cn2)cc1` (stereo not drawn) [Compound 30] showed a half-maximal inhibitory concentration (IC50) of 114 nM. In other words, the sub-micromolar range.

Compound `CC(C)(C)CN(C(=O)Cc1cncc2ccccc12)c1ccc(-c2c[nH]cn2)cc1` [Compound 45] returned an IC50 of 356 nM.

The compound `O=C(Cc1nnc2ccccn12)N(Cc1cccc(Cl)c1)c1ccc(-c2cn[nH]c2)cc1` [Compound 1, N-[(3-chlorophenyl)methyl]-N-[4-(1H-pyrazol-4-yl)phenyl]-2-([1,2,4]triazolo[4,3-a]pyridin-3-yl)acetamide] gave an IC50 of 365 nM.

As to `CC(C)CN(C(=O)Cc1nnc2ccccn12)c1ccc(-c2c[nH]cn2)cc1` [Compound 46], the half-maximal inhibitory concentration (IC50) is 8100 nM.

`COc1ccncc1CC(=O)N(Cc1cc(F)cc(Cl)c1)c1ccc(-c2c[nH]cn2)cc1` [Compound 78] came in with a 50% inhibitory concentration (IC50) of 222 nM.

Regarding `O=C(Cc1cncc2ccccc12)N(Cc1cccc(F)c1F)c1ccc(-c2c[nH]cn2)cc1` [Compound 25], the IC50 turned out to be 184 nM.

On to `O=C(Cc1cnccc1C(F)(F)F)N(Cc1cc(F)cc(Cl)c1)c1ccc(-c2c[nH]cn2)cc1` [Compound 75], for which the 50% inhibitory concentration (IC50) stood at 1000 nM.

In turn, `Cc1cncc(CC(=O)N(Cc2cc(F)cc(Cl)c2)c2ccc(C3CNC3)cc2)c1` [Compound 80] returned an IC50 of 110 nM. Compared with the last compound, the IC50 is about 9.1-fold lower.

On to `O=C(Cc1cncc(C2CC2)c1)N(Cc1cc(F)cc(Cl)c1)c1ccc(C2CNC2)cc1` [Compound 79], for which half-maximal inhibition (IC50) was put at 112 nM.

`O=C(Cc1nnc2ccccn12)N(Cc1cc(F)cc(Cl)c1)c1ccc(-c2c[nH]cn2)cc1` [Compound 9, N-[(3-chloro-5-fluoro-phenyl)methyl]-N-[4-(1H-imidazol-4-yl)phenyl]-2-([1,2,4]triazolo[4,3-a]pyridin-3-yl)acetamide] yielded an IC50 of 71 nM.

`O=C(Cc1cccnn1)N(Cc1cc(F)cc(F)c1)c1ccc(-c2c[nH]cn2)cc1` [Compound 31]: inhibition was half-maximal at 506 nM (IC50).

In turn, `O=C(Cc1noc2ccccc12)N(Cc1cc(F)cc(Cl)c1)c1ccc(-c2c[nH]cn2)cc1` [Compound 49] showed a concentration for half-maximal inhibition (IC50) of 839 nM.

On to `O=C1NC(CC(=O)N(Cc2cc(F)cc(Cl)c2)c2ccc(-c3c[nH]cn3)cc2)c2ccccc21` (stereo not drawn) [Compound 50], for which the IC50 was found to be 30800 nM.

Consider `O=C(Cc1nnc(-c2ccccc2)o1)N(Cc1cccc(Cl)c1)c1ccc(-c2cn[nH]c2)cc1` [Compound 7, N-[(3-chlorophenyl)methyl]-2-(5-phenyl-1,3,4-oxadiazol-2-yl)-N-[4-(1H-pyrazol-4-yl)phenyl]acetamide], for which the “SARS-CoV-2 IC50 (nM)” value is “Inactive”.

Consider `O=C(Cc1cncc2ccccc12)N(Cc1ccc(Cl)c(F)c1)c1ccc(-c2c[nH]cn2)cc1` [Compound 58], for which 1090 nM corresponded to half-maximal inhibition (IC50).

As for `O=C(Cc1nnc2ccccn12)N(Cc1cc(F)cc(F)c1)c1ccc(-c2c[nH]cn2)cc1` [Compound 27], 209 nM corresponded to half-maximal inhibition (IC50).

`Cc1ccncc1CC(=O)N(Cc1cc(F)cc(Cl)c1)c1ccc(-c2c[nH]cn2)cc1` [Compound 77] came in with an IC50 of 136 nM.

`CC(C)(C)NC(=O)C(c1cc(F)cc(F)c1)N(C(=O)Cc1cncc2ccccc12)c1ccc(C2=CCNC2)cc1` (stereo not drawn) [Compound 63] showed a 50% inhibitory concentration (IC50) of 1030 nM.

The compound `O=C(Cc1cncc(F)c1)N(Cc1cncc(F)c1)c1ccc(C2CNC2)cc1` [Compound 83] yielded an IC50 of 5220 nM.

`O=C(Cc1cncc(Br)c1)N(Cc1cc(F)cc(F)c1)c1ccc(-c2c[nH]cn2)cc1` [Compound 65] displayed an IC50 of 187 nM.

Consider `O=C(Cc1cncc(C2CC2)c1)N(Cc1cc(F)cc(F)c1)c1ccc(-c2c[nH]cn2)cc1` [Compound 67], for which half-maximal inhibition (IC50) required 161 nM.

The compound `O=C(Cc1cncc2ccccc12)N(Cc1cncc(F)c1)c1ccc(-c2c[nH]cn2)cc1` [Compound 40] returned an IC50 of 53 nM. Compared with the last compound, the IC50 is about 3-fold lower.

For `O=C1CNCCN1c1ccc(N(Cc2cc(F)cc(F)c2)C(=O)Cc2cncc3ccccc23)cc1` [Compound 35], the IC50 was 481 nM.

`O=C1CN(c2ccc(N(Cc3cc(F)cc(F)c3)C(=O)Cc3cncc4ccccc34)cc2)CCN1` [Compound 36] had an IC50 of 370 nM. The IC50 values of the last two compounds are within 1.5-fold of each other.

Turning to `O=C(Cc1cnc2ccccn12)N(Cc1cc(F)cc(Cl)c1)c1ccc(-c2c[nH]cn2)cc1` [Compound 11, N-[(3-chloro-5-fluoro-phenyl)methyl]-2-imidazo[1,2-a]pyridin-3-yl-N-[4-(1H-imidazol-4-yl)phenyl]acetamide], half-maximal inhibition (IC50) was put at 65 nM.

Take `COc1cc(Cl)cc(CN(C(=O)Cc2cncc3ccccc23)c2ccc(-c3c[nH]cn3)cc2)c1` [Compound 19]: the IC50 was found to be 100 nM.

`COc1ccc(F)cc1CN(C(=O)Cc1cncc2ccccc12)c1ccc(-c2c[nH]cn2)cc1` [Compound 53]: half-maximal inhibition (IC50) was put at 179 nM.

`O=C(Cc1cccnn1)N(Cc1cccc(Cl)c1)c1ccc(-c2cn[nH]c2)cc1` [Compound 6, N-[(3-chlorophenyl)methyl]-N-[4-(1H-pyrazol-4-yl)phenyl]-2-pyridazin-3-yl-acetamide] came in with an IC50 of 5000 nM.

`O=C(Cc1cccnn1)N(Cc1cc(F)cc(Cl)c1)c1ccc(-c2c[nH]cn2)cc1` [Compound 52] displayed an IC50 of 389 nM.

`O=C(Cc1cncc2ccccc12)N(Cc1cncc(C(F)(F)F)c1)c1ccc(-c2c[nH]cn2)cc1` [Compound 39] showed an IC50 of 82 nM.

For `C[C@H](c1cc(F)cc(Cl)c1)N(C(=O)Cc1nnc2ccccn12)c1ccc(-c2c[nH]cn2)cc1` [Compound 13], the concentration for half-maximal inhibition (IC50) was determined as 587 nM. This IC50 lies about 7.2-fold higher than the previous one.

`O=C(Cc1nnc2ccccn12)N(Cc1cc(F)ccc1F)c1ccc(-c2c[nH]cn2)cc1` [Compound 22] had a 50% inhibitory concentration (IC50) of 786 nM.

`Cc1cncc(CC(=O)N(Cc2cc(F)cc(F)c2)c2ccc(-c3c[nH]cn3)cc2)c1` [Compound 66] showed an IC50 of 103 nM. Against the preceding compound, the IC50 is about 7.6-fold lower.

For `O=C(Cc1nnc2ccccn12)N(Cc1cccc(F)c1F)c1ccc(-c2c[nH]cn2)cc1` [Compound 24], inhibition was half-maximal at 1300 nM (IC50). Against the preceding compound, the IC50 is about 13-fold higher.

Regarding `O=C(Cc1cncc2ccccc12)N(Cc1cc(F)cc(Cl)c1)c1ccc(-c2c[nH]cn2)cn1` [Compound 29], half-maximal inhibition (IC50) was put at 40 nM. Compared with the last compound, the IC50 is about 32-fold lower.

Regarding `O=C(Cc1cnc2ccccn12)N(Cc1cccc(Cl)c1)c1ccc(-c2cn[nH]c2)cc1` [Compound 4, N-[(3-chlorophenyl)methyl]-2-imidazo[1,2-a]pyridin-3-yl-N-[4-(1H-pyrazol-4-yl)phenyl]acetamide], the IC50 turned out to be 1150 nM.

`O=C(Cc1nnc2ccc(F)cn12)N(Cc1cc(F)cc(Cl)c1)c1ccc(-c2c[nH]cn2)cc1` [Compound 10, N-[(3-chloro-5-fluoro-phenyl)methyl]-2-(6-fluoro-[1,2,4]triazolo[4,3-a]pyridin-3-yl)-N-[4-(1H-imidazol-4-yl)phenyl]acetamide] returned a 50% inhibitory concentration (IC50) of 77 nM.

`O=C(Cc1cncc2ccccc12)N(Cc1cccc(F)c1)c1ccc(-c2c[nH]cn2)cc1` [Compound 26] yielded an IC50 of 351 nM.

Turning to `Cc1ccc2nnc(CC(=O)N(Cc3cc(F)cc(F)c3)c3ccc(-c4c[nH]cn4)cc3)n2n1` [Compound 41], half-maximal inhibition (IC50) was put at 604 nM. This IC50 lies about 1.7-fold higher than the previous one.

Take `O=C(Cc1cncc2ccccc12)N(Cc1cncc(F)c1)c1ccc(C2=CCNC2)cc1` [Compound 68]: it took 608 nM to reach half-maximal inhibition (IC50).

In turn, `O=C(Cc1cncc2ccccc12)N(Cc1cc(F)cc(F)c1)c1ccc(C2CNC2)cc1` [Compound 62] came in with an IC50 of 69 nM.

For the compound `N#Cc1ccc(N(Cc2cc(F)cc(F)c2)C(=O)Cc2cncc3ccccc23)cc1` [Compound 38], the half-maximal inhibitory concentration (IC50) is 1250 nM.

In the case of `O=C(Cc1cncc2ccccc12)N(Cc1cc(F)cc(Cl)c1)c1ccc(C2CNC2)cc1` [Compound 72], the 50% inhibitory concentration (IC50) came out at 56 nM.

Turning to `O=C(Cc1cnccn1)N(Cc1cccc(Cl)c1)c1ccc(-c2cn[nH]c2)cc1` [Compound 5, N-[(3-chlorophenyl)methyl]-2-pyrazin-2-yl-N-[4-(1H-pyrazol-4-yl)phenyl]acetamide], the concentration for half-maximal inhibition (IC50) was 5220 nM.

The compound `O=C(Cc1nncc2ccccc12)N(Cc1cc(F)cc(Cl)c1)c1ccc(C2CNC2)cc1` [Compound 82, N-(4-(azetidin-3-yl)phenyl)-N-(3-chloro-5-fluorobenzyl)-2-(phthalazin-1-yl)acetamide] registered an IC50 of 70 nM.

The compound `O=C(Cc1cncc2ccccc12)N(Cc1cc(F)ccc1F)c1ccc(-c2c[nH]cn2)cc1` [Compound 23] returned a half-maximal inhibitory concentration (IC50) of 159 nM.

Compound `O=C(Cc1cccnc1)N(Cc1cccc(Cl)c1)c1ccc(-c2c[nH]cn2)cc1` [Compound 44] came in with a 50% inhibitory concentration (IC50) of 414 nM.

In turn, `O=C(Cc1cncc2ccccc12)N(Cc1cccc(Cl)c1F)c1ccc(-c2c[nH]cn2)cc1` [Compound 16] showed a half-maximal inhibitory concentration (IC50) of 370 nM.

`NCc1ccc(N(Cc2cc(F)cc(F)c2)C(=O)Cc2cncc3ccccc23)cc1` [Compound 74] displayed an IC50 of 76 nM.

For `Cc1ccc2nnc(CC(=O)N(Cc3cc(F)cc(Cl)c3)c3ccc(-c4c[nH]cn4)cc3)n2n1` [Compound 42], the IC50 is 250 nM.

As to `O=C(Cc1cncc2ccccc12)N(Cc1cc(F)cc(Cl)c1)c1ccc(C2=CCNC2)cc1` [Compound 57], the half-inhibitory concentration (IC50) is 81 nM.

In the case of `NC(=O)c1ccc(N(Cc2cc(F)cc(F)c2)C(=O)Cc2cncc3ccccc23)cc1` [Compound 51], half-maximal inhibition (IC50) required 100 nM. The IC50 values of the last two compounds are within 1.5-fold of each other.

With `O=C(Cc1cncc(F)c1)N(Cc1cc(F)cc(Cl)c1)c1ccc(-c2c[nH]cn2)cc1` [Compound 69], half-maximal inhibition (IC50) required 220 nM.

`O=C1Nc2ccccc2C1CC(=O)N(Cc1cc(F)cc(Cl)c1)c1ccc(-c2c[nH]cn2)cc1` (stereo not drawn) [Compound 59] registered an IC50 of 6240 nM.

With `O=C(Cc1cncc2ccccc12)N(Cc1cc(F)cc(F)c1)c1ccc(-c2c[nH]cn2)cc1` [Compound 28], it took 53 nM to reach half-maximal inhibition (IC50).

`O=C(Cc1cncc2ccccc12)N(Cc1cc(F)cc(OC(F)(F)F)c1)c1ccc(-c2c[nH]cn2)cc1` [Compound 61] gave an IC50 of 113 nM. This IC50 lies about 2.1-fold higher than the previous one.
